Where a SMILES comes first, the peptide text is derived from it.
Assays:
rTas1r2-hTAS1R3 = molecular target: T1, rTas1r2-hTAS1R3 (UniProt Q7RTX0+Q9Z0R7); assay: Calcium mobilization (FLIPR), interspecies combination; settings: asp 15 mM; cyc 30 mM; neo 0.1 mM; sac 10 mM; suc 100 mM; stev 1 mM; markedly reduced amplitudes
T1 sequence (Q9Z0R7 20-843): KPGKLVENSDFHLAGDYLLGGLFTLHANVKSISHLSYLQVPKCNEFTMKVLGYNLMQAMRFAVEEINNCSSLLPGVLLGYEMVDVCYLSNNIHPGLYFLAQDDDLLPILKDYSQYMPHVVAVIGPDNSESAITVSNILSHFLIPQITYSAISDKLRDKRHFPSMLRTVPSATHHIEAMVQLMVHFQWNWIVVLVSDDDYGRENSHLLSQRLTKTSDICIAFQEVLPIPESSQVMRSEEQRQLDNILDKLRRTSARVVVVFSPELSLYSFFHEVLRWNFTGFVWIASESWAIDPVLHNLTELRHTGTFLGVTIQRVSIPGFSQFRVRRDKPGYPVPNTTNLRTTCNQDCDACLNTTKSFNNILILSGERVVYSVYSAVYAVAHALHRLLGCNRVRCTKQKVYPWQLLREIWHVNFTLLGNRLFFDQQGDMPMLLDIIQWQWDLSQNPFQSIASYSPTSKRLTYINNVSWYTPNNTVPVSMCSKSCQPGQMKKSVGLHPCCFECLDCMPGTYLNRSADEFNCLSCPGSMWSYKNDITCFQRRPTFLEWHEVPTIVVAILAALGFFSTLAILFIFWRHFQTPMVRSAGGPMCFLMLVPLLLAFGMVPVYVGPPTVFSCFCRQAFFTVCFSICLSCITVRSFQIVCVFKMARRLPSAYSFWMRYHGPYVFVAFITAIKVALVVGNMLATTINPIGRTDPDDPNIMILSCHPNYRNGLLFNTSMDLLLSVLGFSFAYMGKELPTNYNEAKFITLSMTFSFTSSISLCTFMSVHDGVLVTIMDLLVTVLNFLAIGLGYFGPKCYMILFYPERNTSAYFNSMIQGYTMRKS
T1 sequence (Q7RTX0 21-852): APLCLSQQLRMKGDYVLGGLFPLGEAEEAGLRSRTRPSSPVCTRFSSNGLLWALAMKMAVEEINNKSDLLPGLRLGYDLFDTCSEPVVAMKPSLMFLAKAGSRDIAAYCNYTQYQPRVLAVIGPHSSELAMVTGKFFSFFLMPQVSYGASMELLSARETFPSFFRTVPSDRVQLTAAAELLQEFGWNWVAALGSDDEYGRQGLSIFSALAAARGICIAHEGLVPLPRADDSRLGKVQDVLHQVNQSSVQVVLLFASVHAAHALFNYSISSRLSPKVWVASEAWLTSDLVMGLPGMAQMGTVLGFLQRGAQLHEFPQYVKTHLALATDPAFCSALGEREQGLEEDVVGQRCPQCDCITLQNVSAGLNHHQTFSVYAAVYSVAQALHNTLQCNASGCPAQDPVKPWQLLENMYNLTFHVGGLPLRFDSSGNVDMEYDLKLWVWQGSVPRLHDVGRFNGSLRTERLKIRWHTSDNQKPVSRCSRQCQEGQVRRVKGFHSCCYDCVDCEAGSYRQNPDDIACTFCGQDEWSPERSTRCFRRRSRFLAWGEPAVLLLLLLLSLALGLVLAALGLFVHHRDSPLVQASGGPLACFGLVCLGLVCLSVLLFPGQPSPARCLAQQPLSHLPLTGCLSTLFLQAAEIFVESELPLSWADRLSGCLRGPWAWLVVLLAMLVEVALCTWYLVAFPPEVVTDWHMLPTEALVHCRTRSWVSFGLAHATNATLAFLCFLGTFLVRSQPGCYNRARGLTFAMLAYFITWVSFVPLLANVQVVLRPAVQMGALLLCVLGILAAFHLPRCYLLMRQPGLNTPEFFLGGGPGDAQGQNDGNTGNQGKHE

hTAS1R2-hTAS1R3 = molecular target: T2, hTAS1R2-hTAS1R3 (Homo sapiens, UniProt Q7RTX0+Q8TE23); assay: Calcium mobilization (FLIPR) in transfected HEK293T-Gα16gust44 cells, human sweet receptor; settings: asp 15 mM; cyc 30 mM; neo 0.1 mM; sac 10 mM; suc 100 mM; stev 1 mM
T2 sequence (Q8TE23 20-839): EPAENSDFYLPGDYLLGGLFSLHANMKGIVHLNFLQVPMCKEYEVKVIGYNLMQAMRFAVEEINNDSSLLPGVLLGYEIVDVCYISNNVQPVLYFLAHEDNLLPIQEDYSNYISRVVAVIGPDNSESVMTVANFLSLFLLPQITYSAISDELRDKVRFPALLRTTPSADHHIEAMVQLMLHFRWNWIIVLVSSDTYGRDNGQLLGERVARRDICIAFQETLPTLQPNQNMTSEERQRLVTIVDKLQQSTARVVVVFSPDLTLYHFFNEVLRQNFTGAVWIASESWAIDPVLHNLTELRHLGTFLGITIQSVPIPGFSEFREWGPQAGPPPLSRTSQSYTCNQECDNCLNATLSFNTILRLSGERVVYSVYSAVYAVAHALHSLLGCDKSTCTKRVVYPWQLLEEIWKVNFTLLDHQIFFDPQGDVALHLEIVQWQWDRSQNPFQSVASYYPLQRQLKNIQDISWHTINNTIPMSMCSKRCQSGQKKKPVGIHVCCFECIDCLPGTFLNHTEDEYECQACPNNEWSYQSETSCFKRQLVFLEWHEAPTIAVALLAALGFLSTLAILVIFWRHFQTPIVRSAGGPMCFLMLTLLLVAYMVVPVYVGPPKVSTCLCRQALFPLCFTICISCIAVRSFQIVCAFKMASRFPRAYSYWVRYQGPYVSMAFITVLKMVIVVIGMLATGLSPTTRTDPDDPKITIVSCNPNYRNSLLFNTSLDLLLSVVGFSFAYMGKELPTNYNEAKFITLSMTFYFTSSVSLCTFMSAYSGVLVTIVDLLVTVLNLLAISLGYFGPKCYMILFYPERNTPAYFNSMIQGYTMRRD
T2 sequence (Q7RTX0 21-852): T1 sequence (Q7RTX0 21-852)

SMILES | activation of receptor (calcium response) (rTas1r2-hTAS1R3) | activation of receptor (calcium response) (hTAS1R2-hTAS1R3)
COc1ccc(CCC(=O)c2c(O)cc(O[C@@H]3O[C@H](CO)[C@@H](O)[C@H](O)[C@H]3O[C@@H]3O[C@@H](C)[C@H](O)[C@@H](O)[C@H]3O)cc2O)cc1O [neohesperidine dihydrochalcone] | clearly responded | activated the human receptor
OC[C@H]1O[C@@](CO)(O[C@H]2O[C@H](CO)[C@@H](O)[C@H](O)[C@H]2O)[C@@H](O)[C@@H]1O [sucrose] | failed to activate | activated the human receptor

The remaining lines, values ahead:

activation of receptor (calcium response) (rTas1r2-hTAS1R3) | activation of receptor (calcium response) (hTAS1R2-hTAS1R3) | SMILES
failed to activate | activated the human receptor | COC(=O)[C@H](Cc1ccccc1)NC(=O)[C@@H](N)CC(=O)O [aspartame] (HELM PEPTIDE1{D.F.[CO[*:1]]}$$$$V2.0)
clearly responded | activated the human receptor | O=S(=O)(O)NC1CCCCC1 [cyclamate]
failed to activate | activated the human receptor | C=C1C[C@@]23CC[C@H]4[C@@](C)(CCC[C@@]4(C)C(=O)O[C@@H]4O[C@H](CO)[C@@H](O)[C@H](O)[C@H]4O)[C@@H]2CC[C@]1(O[C@@H]1O[C@H](CO)[C@@H](O)[C@H](O)[C@H]1O[C@@H]1O[C@H](CO)[C@@H](O)[C@H](O)[C@H]1O)C3 [stevioside]

— paper PMC1084349 (BMC Neuroscience, 2005)
